Values quoted from earlier work in paper PMC7269146, “Jingzhaotoxin-X, a gating modifier of Kv4.2 and Kv4.3 potassium channels purified from the venom of the Chinese tarantula Chilobrachys jingzhao” (The Journal of Venomous Animals and Toxins Including …, 2020).
“Also recorded” adds a separate entry of the source. Where two headings read alike, the source gives them in different places.

Legend:
Kv2 channels = details: ref [40], [41]; cited from earlier work
Nav1.5 channels = details: cited from earlier work
Source text: (§1) Table 1. Characterization of the main peptides from C. jingzhao venom | column: Main pharmacological activity

Kv2.1 channels = details: cited from earlier work
Source text: (§2) Table 1. Characterization of the main peptides from C. jingzhao venom | column: Main pharmacological activity || The tarantula Chilobrachys jingzhao is one of the largest venomous spiders in the south of China. Peptide toxins purified from spider venom provide crucial approaches to investigating Kv4 channels. […] Jingzhaotoxin-XI ...

rat cardiac Nav channels = details: ref [10]; cited from earlier work
Source text: as §1

Nav channels = details: cited from earlier work
Source text: as §1

Kv4.3 or Kv4.2 = details: ref [14], [19]-[21]; cited from earlier work
Source text: The tarantula Chilobrachys jingzhao is one of the largest venomous spiders in the south of China. Peptide toxins purified from spider venom provide crucial approaches to investigating Kv4 channels. […] Jingzhaotoxin-XI ...

Kv4 channels = details: cited from earlier work
Source text: as §2

Kv4.1 channels = details: ref [17]; cited from earlier work
Source text: as §2

Kv channel = details: ref [18]; cited from earlier work
Source text: as §1

calcium channel = details: ref [35]; cited from earlier work
Source text: A total of 6 cysteine residues were highly conserved among each spider toxin at specific locations.

Substance: HaTx1: gating-modifying toxin (ECRYLFGGCKTTSDCCKHLGCKFRDKYCAWDFTFS; UniProt P56852 50-84, looked up)
- suppression of Kv2 channels (Kv2 channels): suppressing Kv2 channels

Substance: Jingzhaotoxin-I
- Main pharmacological activity, Nav1.5 (Nav1.5 channels; ref [7]-[9]): Inhibits Nav1.5 channels inactivation and Kv2.1 channels
- Main pharmacological activity, Kv2.1 (Kv2.1 channels; ref [7]-[9]): Inhibits Nav1.5 channels inactivation and Kv2.1 channels

Substance: Jingzhaotoxin-II
- Main pharmacological activity, rat cardiac Nav channels (rat cardiac Nav channels): Inhibits inactivation of both rat cardiac Nav channels and Nav1.5 channels
- Main pharmacological activity, Nav1.5 (Nav1.5 channels; ref [10]): Inhibits inactivation of both rat cardiac Nav channels and Nav1.5 channels

Substance: Jingzhaotoxin-III
- Main pharmacological activity, Nav1.5 (Nav1.5 channels; ref [11], [12]): Inhibits Nav1.5 and Kv2.1 channels
- Main pharmacological activity, Kv2.1 (Kv2.1 channels; ref [11], [12]): Inhibits Nav1.5 and Kv2.1 channels

Substance: Jingzhaotoxin-IV
- Main pharmacological activity, Nav channels (Nav channels; ref [13]): Modifies the activation and inactivation of Nav channels

Substance: Jingzhaotoxin-V
- Main pharmacological activity, Nav channels (Nav channels): Inhibits both Nav and Kv4 channels
- inhibition of Kv4.3 or Kv4.2 (Kv4.3 or Kv4.2): inhibit either Kv4.3 or Kv4.2, or both of these channels
- Main pharmacological activity, Kv4 channels (Kv4 channels): Inhibits both Nav and Kv4 channels

Substance: Jingzhaotoxin-XI
- Main pharmacological activity, Nav1.5 (Nav1.5 channels; ref [15], [16]): Inhibits Nav1.5 inactivation and Kv2.1 channels
- Main pharmacological activity, Kv2.1 (Kv2.1 channels; ref [15], [16]): Inhibits Nav1.5 inactivation and Kv2.1 channels

Substance: Jingzhaotoxin-XII
- Main pharmacological activity, Kv4.1 (Kv4.1 channels): specific Kv4.1 channel-gating modifier; also recorded: Inhibits Kv4.1 channels

Substance: Jingzhaotoxin-XIII
- Main pharmacological activity, Kv channel (Kv channel): Modifies Kv channel gating

Substance: SNX-482 (GVDKAGCRYMFGGCSVNDDCCPRLGCHSLFSYCAWDLTFSD; UniProt P56854 1-41, looked up)
- inhibition of Kv4.3 or Kv4.2 (Kv4.3 or Kv4.2): inhibit either Kv4.3 or Kv4.2, or both of these channels

Substance: ω-grammotoxin SIA
- activity on calcium channel (calcium channel): blocker of calcium channel
